The values that follow come from patent US20240217977A1, “DIAZEPANONE-FUSED PYRIMIDINE COMPOUNDS, COMPOSITIONS AND MEDICINAL APPLICATIONS THEREOF” (Blueprint Medicines Corporation, priority 2021, published 2024).

SMILES strings stand for the structures.

Holding throughout (assay type): cell-based
For one assay, the system named is A431 cells. The assay can be described thus: Cellular proliferation (Alamar Blue) assay, A431 cells. The note with it: Homo sapiens, A-431, 72 hr incubation. The method, then: (§1) Example 2: Cellular Proliferation (Alamar Blue) Assays
(§2) • 1. EGFR(D770_N771insSVD) expressing Ba/F3 stable cell line • 2. EGFR (A767_dupASV) expressing Ba/F3 stable cell line • 3. A431 cells • 4. EGFR (H773insNPH) expressing Ba/F3 stable cell line • 5. HER2 (A775_G775insYVMA) expressing Ba/F3 stable cell line
(§3) • 1. Seed cells at 5000 for A431 and 15,000 cells for Ba/F3 in 100 μL/well in complete media (for A431: DMEM with 10% FBS and for Ba/F3 cells: RPMI with 10% FBS) in • 96-well tissue culture plate. Leave outer wells without cells for background measurements. Incubate at 37 degree Celsius in 5% C02 humidified incubator for 16-18 hours. • 2. Add 0.025 ml of 5× concentration compound dilution or DMSO control. Final compound concentration range is 10-0.0005 μM prepared in 3-fold serial dilutions. Incubate for 72 hr at 37 degree Celsius in 5% CO2 humidified incubator. • 3. Add 0.0125 ml Alamar Blue™ reagent to each well with multi-channel pipette and tap gently on each side of the plate to mix. Incubate for 3 hours at 37 degree Celsius in 5% CO2 humidified incubator. • 4. Read plates on fluorescence reader (Tecan Spark Control, Device: Spark, Serial #: 1801006040) at 540 nm excitation, 590 nm emission wavelength. • 5. Data analysis was performed using XLfit 5.5.0.5.
(In general: The colour change of resazurin is a common sign of viable cells or microbes.)

The target of assay [1] is EGFR (A767_dupASV) expressing Ba/F3 stable cell line (Homo sapiens, UniProt P00533, DUP767-769, cells depend on it). The assay can be described thus: Cellular proliferation (Alamar Blue) assay, EGFR (A767_dupASV) Ba/F3. The following applies: 72 hr incubation, read-out: A767 IC50. The method, then:
as §1, §2, §3

Assay [2] addresses EGFR(D770_N771insSVD) expressing Ba/F3 stable cell line (Homo sapiens, UniProt P00533, DUP768-770, cells depend on it). The assay can be described thus: Cellular proliferation (Alamar Blue) assay, EGFR(D770_N771insSVD) Ba/F3. The note with it: 72 hr incubation, read-out: D770 IC50. The procedure:
as §1, §2, §3

For assay [3], the target named is EGFR (H773insNPH) expressing Ba/F3 stable cell line (Homo sapiens, UniProt P00533, DUP771-773, cells depend on it). The assay can be described thus: Cellular proliferation (Alamar Blue) assay, EGFR (H773insNPH) Ba/F3. The note with it: 72 hr incubation, read-out: NPH IC50. The procedure:
as §1, §2, §3

For assay [4], the target named is HER2 (A775_G775insYVMA) expressing Ba/F3 stable cell line (Homo sapiens, UniProt P04626, DUP772-775, cells depend on it). The assay can be described thus: Cellular proliferation (Alamar Blue) assay, HER2 (A775_G775insYVMA) Ba/F3. The note with it: 72 hr incubation, read-out: YVMA IC50. The method, then: as §1, §2, §3
Chain of HER2 (A775_G775insYVMA) expressing Ba/F3 stable cell line (P04626 with tags, fused parts or gaps DUP772-775): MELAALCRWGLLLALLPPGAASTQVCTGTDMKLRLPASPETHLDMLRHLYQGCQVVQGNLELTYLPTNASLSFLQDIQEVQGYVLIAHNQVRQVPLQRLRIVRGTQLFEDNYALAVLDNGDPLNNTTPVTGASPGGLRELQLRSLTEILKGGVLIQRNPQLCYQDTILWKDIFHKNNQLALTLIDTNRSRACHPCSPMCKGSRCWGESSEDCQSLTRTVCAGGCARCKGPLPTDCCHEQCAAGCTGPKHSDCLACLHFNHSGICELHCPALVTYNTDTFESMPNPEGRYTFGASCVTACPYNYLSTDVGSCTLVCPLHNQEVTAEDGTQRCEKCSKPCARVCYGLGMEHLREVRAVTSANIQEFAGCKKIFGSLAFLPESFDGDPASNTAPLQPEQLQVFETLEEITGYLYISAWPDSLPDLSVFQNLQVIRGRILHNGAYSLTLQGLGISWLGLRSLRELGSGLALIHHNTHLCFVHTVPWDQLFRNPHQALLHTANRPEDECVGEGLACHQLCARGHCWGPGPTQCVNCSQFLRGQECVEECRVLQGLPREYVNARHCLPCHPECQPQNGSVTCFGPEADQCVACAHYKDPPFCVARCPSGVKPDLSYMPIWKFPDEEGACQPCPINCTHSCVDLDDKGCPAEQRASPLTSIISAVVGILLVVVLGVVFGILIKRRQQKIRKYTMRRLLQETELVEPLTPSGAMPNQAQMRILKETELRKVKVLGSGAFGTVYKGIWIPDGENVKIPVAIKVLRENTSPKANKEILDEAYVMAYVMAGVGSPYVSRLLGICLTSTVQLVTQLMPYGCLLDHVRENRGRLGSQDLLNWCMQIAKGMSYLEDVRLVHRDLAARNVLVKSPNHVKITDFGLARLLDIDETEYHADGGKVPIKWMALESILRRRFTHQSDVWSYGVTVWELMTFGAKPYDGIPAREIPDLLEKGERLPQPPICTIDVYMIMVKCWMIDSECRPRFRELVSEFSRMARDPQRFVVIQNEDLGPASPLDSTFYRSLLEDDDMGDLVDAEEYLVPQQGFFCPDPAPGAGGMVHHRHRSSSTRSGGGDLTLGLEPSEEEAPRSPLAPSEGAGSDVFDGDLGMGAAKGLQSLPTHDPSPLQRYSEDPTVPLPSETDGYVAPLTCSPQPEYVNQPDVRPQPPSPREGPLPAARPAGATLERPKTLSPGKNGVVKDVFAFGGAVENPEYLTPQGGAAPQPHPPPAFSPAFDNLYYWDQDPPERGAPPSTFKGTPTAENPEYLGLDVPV

Chain of EGFR (H773insNPH) expressing Ba/F3 stable cell line (P00533 with tags, fused parts or gaps DUP771-773): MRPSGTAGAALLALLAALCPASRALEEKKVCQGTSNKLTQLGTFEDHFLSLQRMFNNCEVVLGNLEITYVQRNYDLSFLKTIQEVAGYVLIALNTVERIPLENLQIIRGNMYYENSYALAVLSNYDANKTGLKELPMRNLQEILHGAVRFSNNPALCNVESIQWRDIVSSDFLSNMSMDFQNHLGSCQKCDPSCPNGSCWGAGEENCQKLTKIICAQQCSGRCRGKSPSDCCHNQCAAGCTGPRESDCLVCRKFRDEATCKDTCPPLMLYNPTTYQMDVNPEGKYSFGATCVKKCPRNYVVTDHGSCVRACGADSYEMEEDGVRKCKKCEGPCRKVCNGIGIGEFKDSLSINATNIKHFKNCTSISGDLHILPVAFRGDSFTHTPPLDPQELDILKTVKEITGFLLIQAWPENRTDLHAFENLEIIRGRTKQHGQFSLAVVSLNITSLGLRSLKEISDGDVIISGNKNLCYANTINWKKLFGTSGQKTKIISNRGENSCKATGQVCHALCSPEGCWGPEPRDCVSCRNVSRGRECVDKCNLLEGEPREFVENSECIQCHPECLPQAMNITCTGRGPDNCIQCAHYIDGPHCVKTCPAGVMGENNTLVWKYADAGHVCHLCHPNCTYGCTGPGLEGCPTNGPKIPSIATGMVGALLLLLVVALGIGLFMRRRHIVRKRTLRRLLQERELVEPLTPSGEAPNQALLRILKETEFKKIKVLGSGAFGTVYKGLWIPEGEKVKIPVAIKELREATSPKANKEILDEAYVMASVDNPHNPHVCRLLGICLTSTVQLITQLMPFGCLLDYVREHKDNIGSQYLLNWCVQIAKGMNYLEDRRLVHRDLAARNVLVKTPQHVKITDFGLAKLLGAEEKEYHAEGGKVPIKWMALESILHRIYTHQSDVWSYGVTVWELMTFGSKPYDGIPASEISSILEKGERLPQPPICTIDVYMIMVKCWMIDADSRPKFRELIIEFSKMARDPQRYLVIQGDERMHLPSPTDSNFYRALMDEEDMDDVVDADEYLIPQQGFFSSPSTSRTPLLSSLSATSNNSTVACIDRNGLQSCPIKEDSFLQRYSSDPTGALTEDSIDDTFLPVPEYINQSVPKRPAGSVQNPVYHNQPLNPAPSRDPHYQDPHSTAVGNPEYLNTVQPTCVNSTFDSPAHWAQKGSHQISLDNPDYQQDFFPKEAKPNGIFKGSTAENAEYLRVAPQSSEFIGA
Chain of EGFR (A767_dupASV) expressing Ba/F3 stable cell line (P00533 with tags, fused parts or gaps DUP767-769): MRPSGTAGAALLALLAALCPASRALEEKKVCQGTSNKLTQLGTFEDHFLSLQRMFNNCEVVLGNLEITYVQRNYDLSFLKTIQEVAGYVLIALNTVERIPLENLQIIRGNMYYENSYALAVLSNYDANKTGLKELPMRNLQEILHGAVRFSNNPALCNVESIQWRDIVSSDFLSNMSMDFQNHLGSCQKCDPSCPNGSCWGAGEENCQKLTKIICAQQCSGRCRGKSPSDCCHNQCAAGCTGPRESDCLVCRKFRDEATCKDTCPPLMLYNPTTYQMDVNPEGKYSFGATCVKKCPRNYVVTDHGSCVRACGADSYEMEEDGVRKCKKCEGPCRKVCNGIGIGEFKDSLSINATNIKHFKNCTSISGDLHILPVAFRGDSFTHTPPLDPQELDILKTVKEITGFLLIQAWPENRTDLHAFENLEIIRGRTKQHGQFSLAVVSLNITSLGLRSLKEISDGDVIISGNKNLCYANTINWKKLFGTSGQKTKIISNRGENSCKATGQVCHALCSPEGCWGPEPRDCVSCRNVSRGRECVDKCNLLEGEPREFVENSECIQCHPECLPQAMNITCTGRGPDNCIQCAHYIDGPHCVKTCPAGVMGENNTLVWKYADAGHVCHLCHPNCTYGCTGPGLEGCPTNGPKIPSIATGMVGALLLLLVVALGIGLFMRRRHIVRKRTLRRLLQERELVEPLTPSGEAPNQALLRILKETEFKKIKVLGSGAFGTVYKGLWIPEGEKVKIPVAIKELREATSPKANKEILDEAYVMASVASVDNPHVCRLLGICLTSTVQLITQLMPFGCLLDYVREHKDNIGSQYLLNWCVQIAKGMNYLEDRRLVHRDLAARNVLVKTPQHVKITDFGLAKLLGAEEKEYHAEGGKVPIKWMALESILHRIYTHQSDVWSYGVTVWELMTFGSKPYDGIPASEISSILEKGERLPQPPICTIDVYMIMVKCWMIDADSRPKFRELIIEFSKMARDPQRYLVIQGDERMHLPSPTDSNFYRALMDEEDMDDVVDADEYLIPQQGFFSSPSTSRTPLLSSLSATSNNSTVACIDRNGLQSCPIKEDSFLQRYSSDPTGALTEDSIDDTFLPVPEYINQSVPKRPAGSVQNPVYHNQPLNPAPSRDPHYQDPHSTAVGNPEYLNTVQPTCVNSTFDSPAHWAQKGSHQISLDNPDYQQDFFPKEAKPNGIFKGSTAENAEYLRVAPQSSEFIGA
Chain of EGFR(D770_N771insSVD) expressing Ba/F3 stable cell line (P00533 with tags, fused parts or gaps DUP768-770): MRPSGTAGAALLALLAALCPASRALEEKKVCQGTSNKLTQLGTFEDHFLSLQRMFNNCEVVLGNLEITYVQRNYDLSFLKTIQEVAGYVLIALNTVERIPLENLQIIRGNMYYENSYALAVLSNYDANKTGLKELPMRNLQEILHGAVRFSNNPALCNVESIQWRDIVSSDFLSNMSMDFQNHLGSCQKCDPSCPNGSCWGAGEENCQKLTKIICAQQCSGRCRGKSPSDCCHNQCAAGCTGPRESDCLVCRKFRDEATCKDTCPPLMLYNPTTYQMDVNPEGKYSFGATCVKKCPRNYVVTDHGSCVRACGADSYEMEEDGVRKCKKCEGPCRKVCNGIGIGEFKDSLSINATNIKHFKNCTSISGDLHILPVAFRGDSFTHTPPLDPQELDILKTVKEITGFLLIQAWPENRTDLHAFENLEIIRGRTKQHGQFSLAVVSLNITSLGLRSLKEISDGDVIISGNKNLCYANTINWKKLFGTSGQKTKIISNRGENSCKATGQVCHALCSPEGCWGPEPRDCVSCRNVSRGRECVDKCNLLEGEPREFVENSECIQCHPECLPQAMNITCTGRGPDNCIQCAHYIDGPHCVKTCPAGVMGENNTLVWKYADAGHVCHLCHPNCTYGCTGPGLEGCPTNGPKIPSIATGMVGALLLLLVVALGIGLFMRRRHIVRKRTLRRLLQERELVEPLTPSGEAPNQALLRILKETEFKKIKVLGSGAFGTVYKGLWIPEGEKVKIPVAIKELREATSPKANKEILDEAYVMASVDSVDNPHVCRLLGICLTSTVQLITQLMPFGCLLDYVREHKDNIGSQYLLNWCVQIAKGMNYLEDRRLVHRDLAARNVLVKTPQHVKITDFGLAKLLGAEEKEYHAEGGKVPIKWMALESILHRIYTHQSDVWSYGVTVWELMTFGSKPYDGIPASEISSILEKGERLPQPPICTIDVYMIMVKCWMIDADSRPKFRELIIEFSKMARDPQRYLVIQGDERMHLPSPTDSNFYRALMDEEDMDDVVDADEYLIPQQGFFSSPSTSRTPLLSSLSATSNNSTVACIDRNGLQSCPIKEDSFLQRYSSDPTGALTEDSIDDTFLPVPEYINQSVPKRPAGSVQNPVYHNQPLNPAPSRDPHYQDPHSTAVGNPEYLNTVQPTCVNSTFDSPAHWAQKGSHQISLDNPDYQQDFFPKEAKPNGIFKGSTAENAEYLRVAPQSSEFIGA

In the assay with A431 cells, `C=CC(=O)Nc1cccc(N2C(=O)N(Cc3ccccc3)CCc3cnc(Nc4cn(C)nc4F)nc32)c1` [Compound 11, N-(3-(7-benzyl-2-((3-fluoro-1-methyl-1H-pyrazol-4-yl)amino)-8-oxo-5,6,7,8-tetrahydro-9H-pyrimido[4,5-d][1,3]diazepin-9-yl)phenyl)acrylamide] registered a half-inhibitory concentration (IC50) of 5 nM. Besides, the GI50 in assay [1] was 11 nM; in assay [2] it was 10 nM; in assay [3] it was 31 nM; in assay [4], 7 nM.
In the case of `C=CC(=O)Nc1cccc(N2C(=O)N(c3ccccc3)CCc3cnc(Nc4cn(C)nc4Cl)nc32)c1` [Compound 29, N-(3-{2-[(3-chloro-1-methyl-1H-pyrazol-4-yl)amino]-8-oxo-7-phenyl-5H,6H,7H,8H,9H-pyrimido[4,5-d][1,3]diazepin-9-yl}phenyl)prop-2-enamide], the IC50 in the assay with A431 cells amounted to 16 nM. Besides, the GI50 in assay [1] was determined as 36 nM; in assay [2] it was 45 nM; in assay [3], 25 nM; in assay [4], 67 nM.
The corresponding values for `C=CC(=O)Nc1cccc(N2C(=O)N(Cc3ccccc3)CCc3cnc(Nc4cn(C5COC5)nc4Cl)nc32)c1` [Compound 28, N-(3-(7-benzyl-2-((3-chloro-1-(oxetan-3-yl)-1H-pyrazol-4-yl)amino)-8-oxo-5,6,7,8-tetrahydro-9H-pyrimido[4,5-d][1,3]diazepin-9-yl)phenyl)acrylamide] are 9 nM, 13 nM, 12 nM, 32 nM and 8 nM.
The corresponding values for `Cn1cc(Nc2ncc3c(n2)N(c2cccc(NC(=O)/C=C/CN4CCOCC4)c2)C(=O)N(Cc2ccccc2)CC3)c(Cl)n1` [Compound 10, (E)-N-(3-(7-benzyl-2-((3-chloro-1-methyl-1H-pyrazol-4-yl)amino)-8-oxo-5,6,7,8-tetrahydro-9H-pyrimido[4,5-d][1,3]diazepin-9-yl)phenyl)-4-morpholinobut-2-enamide] are 8 nM, 43 nM, 47 nM, 94 nM and 20 nM.
The corresponding values for `COC/C=C/C(=O)Nc1cccc(N2C(=O)N(Cc3ccccc3)CCc3cnc(Nc4cn(C)nc4Cl)nc32)c1` [Compound 4, (E)-N-(3-(7-benzyl-2-((3-chloro-1-methyl-1H-pyrazol-4-yl)amino)-8-oxo-5,6,7,8-tetrahydro-9H-pyrimido[4,5-d][1,3]diazepin-9-yl)phenyl)-4-methoxybut-2-enamide] are above 10000 nM, 104 nM, 98 nM, 103 nM and 125 nM.
For `C=CC(=O)Nc1cccc(N2C(=O)N(c3ccccc3)CCc3cnc(Nc4ccc(N5CCN(C)CC5)cc4)nc32)c1` [Compound 37, N-(3-(2-((4-(4-methylpiperazin-1-yl)phenyl)amino)-8-oxo-7-phenyl-5,6,7,8-tetrahydro-9H-pyrimido[4,5-d][1,3]diazepin-9-yl)phenyl)acrylamide], the IC50 in the assay on A431 cells came to 7 nM. In addition, the GI50 in assay [1] was found to be 38 nM; in assay [2], 89 nM; in assay [3], 100 nM; in assay [4], 138 nM.
As for `C=CC(=O)Nc1cccc(N2C(=O)N(Cc3ccccc3)CCc3cnc(Nc4ccc(N5CCOCC5)nc4)nc32)c1` [Compound 19, N-(3-(7-benzyl-2-((6-morpholinopyridin-3-yl)amino)-8-oxo-5,6,7,8-tetrahydro-9H-pyrimido[4,5-d][1,3]diazepin-9-yl)phenyl)acrylamide], the IC50 in the assay with A431 cells was above 10000 nM. Moreover, the GI50 in assay [1] was found to be 10 nM; in assay [2], 14 nM; in assay [3], 25 nM; in assay [4] it was 24 nM.
`Cn1cc(Nc2ncc3c(n2)N(c2cccc(NC(=O)/C=C/CN4CCCCC4)c2)C(=O)N(Cc2ccccc2)CC3)c(Cl)n1` [Compound 3, (E)-N-(3-(7-benzyl-2-((3-chloro-1-methyl-1H-pyrazol-4-yl)amino)-8-oxo-5,6,7,8-tetrahydro-9H-pyrimido[4,5-d][1,3]diazepin-9-yl)phenyl)-4-(piperidin-1-yl)but-2-enamide] displayed an IC50 with A431 cells above 10000 nM. Besides, the GI50 amounted to 42 nM in assay [1], 48 nM in assay [2], 108 nM in assay [3] and 31 nM in assay [4].
The corresponding values for `C=CC(=O)Nc1cccc(N2C(=O)N(Cc3ccccc3)CCc3cnc(Nc4cn(C5CCN(C)CC5)nc4Cl)nc32)c1` [Compound 7, N-(3-(7-benzyl-2-((3-chloro-1-(1-methylpiperidin-4-yl)-1H-pyrazol-4-yl)amino)-8-oxo-5,6,7,8-tetrahydro-9H-pyrimido[4,5-d][1,3]diazepin-9-yl)phenyl)acrylamide] are 2 nM, 27 nM, 36 nM, 41 nM and 24 nM.
The corresponding values for `C=CC(=O)Nc1cccc(N2C(=O)N(c3ccccc3)CCc3cnc(Nc4cn(C)nc4F)nc32)c1` [Compound 35, N-(3-(2-((3-fluoro-1-methyl-1H-pyrazol-4-yl)amino)-8-oxo-7-phenyl-5,6,7,8-tetrahydro-9H-pyrimido[4,5-d][1,3]diazepin-9-yl)phenyl)acrylamide] are above 10000 nM, 117 nM, 122 nM, 138 nM and 1060 nM.
For `C=CC(=O)Nc1cccc(N2C(=O)N(Cc3ccccc3)CCc3cnc(Nc4ccc(F)cc4OC)nc32)c1` [Compound 21, N-(3-(7-benzyl-2-((4-fluoro-2-methoxyphenyl)amino)-8-oxo-5,6,7,8-tetrahydro-9H-pyrimido[4,5-d][1,3]diazepin-9-yl)phenyl)acrylamide], it took 40 nM to reach half-maximal inhibition in the assay with A431 cells (IC50). The GI50 in assay [1] amounted to 97 nM; in assay [2], 103 nM; in assay [3], 102 nM; in assay [4] it was 44 nM.
Take `C=CC(=O)Nc1cccc(N2C(=O)N(Cc3ccccc3)CCc3cnc(Nc4ccc(N5CCN(C)CC5)nc4)nc32)c1` [Compound 16, N-(3-(7-benzyl-2-((6-(4-methylpiperazin-1-yl)pyridin-3-yl)amino)-8-oxo-5,6,7,8-tetrahydro-9H-pyrimido[4,5-d][1,3]diazepin-9-yl)phenyl)acrylamide]: the IC50 in the assay with A431 cells was 9 nM. Moreover, the GI50 in assay [1] was found to be 25 nM; in assay [2] it was 39 nM; in assay [3], 32 nM; in assay [4] it was 25 nM.
Regarding `C=CC(=O)Nc1cccc(N2C(=O)N(Cc3ccccc3)CCc3cnc(Nc4ccc(N5CCN(C)CC5)cc4OC)nc32)c1` [Compound 14, N-(3-(7-benzyl-2-((2-methoxy-4-(4-methylpiperazin-1-yl)phenyl)amino)-8-oxo-5,6,7,8-tetrahydro-9H-pyrimido[4,5-d][1,3]diazepin-9-yl)phenyl)acrylamide], the IC50 in the assay with A431 cells turned out to be 34 nM. For the same molecule, the GI50 in assay [1] was 33 nM; in assay [2] it was 38 nM; in assay [3], 32 nM; in assay [4] it was 15 nM.

Usually IC50 stands for the concentration that gives 50% inhibition.
